This is an account of results in paper PMC5425475 (Frontiers in Systems Neuroscience, 2017).

Experiment [1] has as its system Am5-HT2A. Also noted: method as in Thamm et al., 2013. Particulars: ref Thamm et al., 2013, cited from earlier work; for EC50: Am5-HT2A in HEK 293 cells.
The test system of experiment [2] is Cv5-HT2A. Also noted: method as in Röser et al., 2012. Particulars: ref Röser et al., 2012, cited from earlier work; for EC50: Cv5-HT2A in HEK 293 cells.
Experiment [3] has as its target T1, Dm5-HT2B (Drosophila melanogaster, UniProt Q8INQ6). Put plainly: Ca2+ fluorimetry (Fluo-4), agonist activation of Dm5-HT2B expressed in HEK 293 cells. In kind it is cell-based. Particulars: for change in Ca2+-dependent Fluo-4 fluorescence: biogenic amines 1 μM each. As to the method: Stably transfected cells were selected in the presence of the antibiotic G418 (0.8 mg/ml). Isolated foci were propagated and analyzed for the expression of Dm5-HT2B-HA receptor either by immunocytochemistry, Western blotting or by functional Ca^2+ imaging upon receptor activation.
The ability of the Dm5-HT2B-HA receptor (hereafter referred to as Dm5-HT2B) to activate Gq proteins was assessed by monitoring changes in [Ca^2+]i with the Ca^2+-sensitive fluorescent dye Fluo-4 (Invitrogen). Non-transfected HEK 293 cells and cells expressing Dm5-HT2B were grown in minimal essential medium (MEM + GlutaMAX^TMI (Gibco/ThermoFisher Scientific, Darmstadt, Germany) containing 2% (w/v) Utroser^TM G (Pall, Dreieich, Germany), 1 × non-essential amino acids and 1 × antibiotics/antimycotics) in 96-well plates to a density of ∼3 × 10^4 cells per well. In this format, each vertical row (=8 wells) of the 96-well plate is incubated with the same ligand concentration. […] Plates were transferred into a fluorescence reader (FLUOstar Galaxy/Optima; BMG Labtech, Offenburg, Germany) to monitor Fluo-4 fluorescence. […] Various concentrations of biogenic amines and synthetic receptor ligands were added, once Fluo-4 fluorescence had reached a stable value in each well. The changes in Fluo-4 fluorescence were recorded automatically. Concentration-response curves for putative agonists/antagonists were established in at least two independent experiments with octuplicate determinations (s.a.) per data point.

Experiment [4] deals with Am5-HT2B. Set-up: method as in Thamm et al., 2013. Particulars: ref Thamm et al., 2013, cited from earlier work; for EC50: Am5-HT2B in HEK 293 cells; for Ca2+-dependent fluorescence blocked to: residual signal.
Experiment [5] deals with T1, Dm5-HT2B. Put plainly: Ca2+ fluorimetry (Fluo-4), antagonists on serotonin-stimulated Dm5-HT2B-expressing HEK 293 cells. The format is cell-based. The note with it: for effect on serotonin-stimulated Dm5-HT2B-expressing cells: 10^-9 M to 10^-4 M antagonist on 10^-7 M serotonin; for Maximal inhibition: relative efficacy, signal with 10^-7 M serotonin = 100%. As for the experimental part:
(§1) The ability of the Dm5-HT2B-HA receptor (hereafter referred to as Dm5-HT2B) to activate Gq proteins was assessed by monitoring changes in [Ca^2+]i with the Ca^2+-sensitive fluorescent dye Fluo-4 (Invitrogen). Non-transfected HEK 293 cells and cells expressing Dm5-HT2B were grown in minimal essential medium (MEM + GlutaMAX^TMI (Gibco/ThermoFisher Scientific, Darmstadt, Germany) containing 2% (w/v) Utroser^TM G (Pall, Dreieich, Germany), 1 × non-essential amino acids and 1 × antibiotics/antimycotics) in 96-well plates to a density of ∼3 × 10^4 cells per well. In this format, each vertical row (=8 wells) of the 96-well plate is incubated with the same ligand concentration. Cells were loaded at room temperature with Fluo-4 as described earlier ([Thamm et al., 2013]; [Blankenburg et al., 2015]) in extracellular solution [ES = in mM: 120 NaCl, 5 KCl, 2 MgCl2, 2 CaCl2, 10 HEPES, 10 Glucose, pH 7.4 (NaOH)]. Plates were transferred into a fluorescence reader (FLUOstar Galaxy/Optima; BMG Labtech, Offenburg, Germany) to monitor Fluo-4 fluorescence. The excitation wavelength was 485 nm, and fluorescence emission was detected at 520 nm. Various concentrations of biogenic amines and synthetic receptor ligands were added, once Fluo-4 fluorescence had reached a stable value in each well. The changes in Fluo-4 fluorescence were recorded automatically. Concentration-response curves for putative agonists/antagonists were established in at least two independent experiments with octuplicate determinations (s.a.) per data point.
Next, we examined the ability of potential receptor antagonists for impairing Dm5-HT2B activity.

The test system of experiment [6] is Rp5-HT2B. Set-up: method as in Paluzzi et al., 2015. The note with it: ref Paluzzi et al., 2015, cited from earlier work; for receptor activity reduced by: Rp5-HT2B, highest of three concentrations tested (10^-7, 10^-6, 10^-5 M).
Experiment [7] deals with non-transfected HEK 293 cells. Put plainly: Ca2+ fluorimetry (Fluo-4) in non-transfected HEK 293 cells (control). The note with it: for change in Ca2+-dependent Fluo-4 fluorescence: biogenic amines 1 μM each. The format is cell-based. As to the method:
as §1

In experiment [8] the target is tyramine receptor TyrR (CG7431). Set-up: method as in Arakawa et al., 1990. The note with it: ref Arakawa et al., 1990; cited from earlier work.
For experiment [9], the system named is β-adrenergic-like octopamine receptor Octβ3R (CG42244). Set-up: method as in Maqueira et al., 2005. The note with it: only 10^-5 M tested; ref Maqueira et al., 2005; cited from earlier work.
In experiment [10] the target is T1, Dm5-HT2B. Also noted: method as in Gasque et al. (2013). Particulars: Dm5-HT2B in HEK 293T cells, individual cells; ref Gasque et al. (2013); cited from earlier work.
The subject of experiment [11] is D. melanogaster larvae. Set-up: method as in Gasque et al., 2013. The note with it: ref Gasque et al., 2013; cited from earlier work.
The mark [12] stands for this setting: background of 10^-7 M serotonin, Dm5-HT2B-expressing HEK 293 cells.

“And” between values parts separate entries of the source, which are not always exact repeats. Equal values may be shown once. “Also recorded” adds a separate entry of the source. Read-outs that look alike come from different tables or passages of the source. Where only a bound is given, the exact number is not on record here.

T1 sequence (Q8INQ6 entry or part of it): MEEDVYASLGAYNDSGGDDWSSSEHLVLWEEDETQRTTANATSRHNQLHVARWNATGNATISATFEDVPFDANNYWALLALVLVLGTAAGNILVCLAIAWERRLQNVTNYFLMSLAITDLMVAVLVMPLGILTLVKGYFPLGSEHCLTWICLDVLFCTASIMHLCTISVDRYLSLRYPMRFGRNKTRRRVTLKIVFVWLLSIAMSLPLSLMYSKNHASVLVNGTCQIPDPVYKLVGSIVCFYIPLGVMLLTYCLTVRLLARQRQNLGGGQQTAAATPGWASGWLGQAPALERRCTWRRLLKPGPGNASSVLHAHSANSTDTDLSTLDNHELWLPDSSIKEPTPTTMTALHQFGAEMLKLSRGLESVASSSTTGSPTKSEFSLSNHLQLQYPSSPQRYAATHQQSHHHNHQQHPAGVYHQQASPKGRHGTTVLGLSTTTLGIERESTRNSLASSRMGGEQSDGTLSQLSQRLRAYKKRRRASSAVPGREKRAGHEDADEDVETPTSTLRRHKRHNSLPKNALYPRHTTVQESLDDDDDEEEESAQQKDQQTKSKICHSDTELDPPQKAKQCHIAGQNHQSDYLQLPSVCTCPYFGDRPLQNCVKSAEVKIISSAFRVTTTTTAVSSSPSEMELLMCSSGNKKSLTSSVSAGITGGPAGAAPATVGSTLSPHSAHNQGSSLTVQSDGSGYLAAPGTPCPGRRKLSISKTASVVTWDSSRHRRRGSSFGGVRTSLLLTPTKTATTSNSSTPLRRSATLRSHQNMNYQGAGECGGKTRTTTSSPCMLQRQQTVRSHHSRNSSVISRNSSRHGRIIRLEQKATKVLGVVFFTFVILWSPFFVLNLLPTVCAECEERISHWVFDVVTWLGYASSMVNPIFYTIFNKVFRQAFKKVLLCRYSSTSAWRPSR

As a reminder, the EC50 is the concentration at which the effect is half-maximal. On to `CCCN(CCC)C1CCc2cccc(O)c2C1` (stereo not drawn) [8-OH-DPAT, 8-Hydroxy-2-(di-n-propylamino)tetralin], for which the EC50 was 55.9 µM in experiment [1], 62 µM in experiment [2], roughly 650 µM in [3] and 0.56 µM in experiment [4].

In general, IC50 refers to the concentration that inhibits the measured activity by half. On to `O=C(CCCN1CCC2(CC1)C(=O)NCN2c1ccccc1)c1ccc(F)cc1` [Spiperone, spiperone], for which, in experiment [5], the “effect on serotonin-stimulated Dm5-HT2B-expressing cells” value is “caused a reduction of the cellular response; also recorded: the responses did not saturate” and the Maximal inhibition is 25%. In addition, the IC50 result in [5] (setting [12]) was “no saturation”.

Take `CN1CCN2c3ccccc3Cc3ccccc3C2C1` (stereo not drawn) [Mianserin, mianserin]: the “serotonin-induced Ca2+-dependent fluorescence reduced by” value in experiment [1] (Am5-HT2A) is 49%. Moreover, the “Ca2+-dependent fluorescence blocked to” value in experiment [4] (Am5-HT2B) is recorded as 24%. Also, the “receptor activity reduced by” value in [6] was no less than 50%.

`CN1CCN(C2=Nc3cc(Cl)ccc3Nc3ccccc32)CC1` [Clozapine, clozapine]: in [4] (Am5-HT2B), the “Ca2+-dependent fluorescence blocked to” value is 5%.

For `NCCc1c[nH]c2ccc(O)cc12` [serotonin, 5-hydroxytryptamine], the EC50 in experiment [1] was 0.0257 µM; in experiment [2], 0.024 µM; in experiment [4], 0.0325 µM; in experiment [6] (Rp5-HT2B in CHOK1-aeq cells), 0.201 µM. Further, the “fluorescence signal at the highest ligand concentration” value in experiment [7] (10^-4 M) was “slight increase in the fluorescence signal”. Moreover, the entries for the “change in Ca2+-dependent Fluo-4 fluorescence” value (“change” below) in experiment [7] and in [3] (Dm5-HT2B-expressing cells) were “not in non-transfected cells” and “increase in the fluorescence signal”, respectively. In addition, in [3] (Dm5-HT2B-expressing cells), the “concentration at which the concentration-response curve saturated” value was found to be 30 µM.

One may read the Ki as a dissociation constant, usually derived from enzyme kinetics or from competition with a known ligand. Consider `CCN(CC)CCNC(=O)c1cc(Cl)c(N)cc1OC` [Metoclopramide, metoclopramide], for which the IC50 in experiment [5] (background of 10^-7 M serotonin, Dm5-HT2B-expressing HEK 293 cells, read-out: IC50) is 1.59e-08 M; in [5] (logarithm of the IC50 (M), background of 10^-7 M serotonin, read-out: Log IC50 ± SD (converted)), 1.58e-08 M. Also, the Maximal inhibition in experiment [5] was determined as 60%. Besides, the “serotonin-evoked Ca2+ response reduced to % of control measurements without antagonist” value in experiment [5] (residual signal at maximal inhibition) was found to be 40%. For the same molecule, the Ki in experiment [8] is 4.6 µM. For the same molecule, in experiment [9], the effect on receptor result is listed as “block”.

On to `O=C(c1ccc(F)cc1)C1CCN(CCn2c(=O)[nH]c3ccccc3c2=O)CC1` [Ketanserin, ketanserin], for which the “effect on serotonin-stimulated Dm5-HT2B-expressing cells” value in experiment [5] is on record as “did not observe any effect; also recorded: completely lacked inhibitory potential”. The IC50 entry in experiment [5] (setting [12]) was “no effect”. Also, in experiment [6], the “receptor activity reduced by” value is no less than 50%.

As for `Cc1cc2c(cc1Cl)N(C(=O)Nc1ccc(Oc3cccnc3C)nc1)CC2` [SB 242084], the “effect on serotonin-stimulated Dm5-HT2B-expressing cells” value in experiment [5] is “did not observe any effect; also recorded: completely lacked inhibitory potential”. For the same molecule, the IC50 result in experiment [5] (setting [12]) is reported as “no effect”.

With `NCCc1c[nH]cn1` [histamine], the “change” value in [7] and in [3] (Dm5-HT2B-expressing cells) was “caused a rise in Ca^2+-dependent Fluo-4 fluorescence” in each case.

For `NCC(O)c1ccc(O)cc1` (stereo not drawn) [octopamine], the “change” value was “Neither dopamine, octopamine nor tyramine evoked responses” in experiment [7] and “Neither dopamine, octopamine nor tyramine evoked responses” in [3] (Dm5-HT2B-expressing cells).

With `COc1cc2nc(N3CCN(C(=O)c4ccco4)CC3)nc(N)c2cc1OC` [Prazosin, prazosin], in experiment [5], the “effect on serotonin-stimulated Dm5-HT2B-expressing cells” value is “caused a reduction of the cellular response; also recorded: the responses did not saturate” and the Maximal inhibition came to 50%. In addition, in experiment [5] (setting [12]), the IC50 entry is reported as “no saturation”.

`CC[C@@H](CO)NC(=O)[C@@H]1C=C2c3cccc4c3c(cn4C)C[C@H]2N(C)C1` [Methysergide, methysergide]: in experiment [5], the “effect on serotonin-stimulated Dm5-HT2B-expressing cells” value is “did not observe any effect; also recorded: completely lacked inhibitory potential”. In [5] (setting [12]), the IC50 result is “no effect”.

As to `NCCc1ccc(O)c(O)c1` [dopamine], the “change” value in experiment [7] is reported as “Neither dopamine, octopamine nor tyramine evoked responses”; in [3] (Dm5-HT2B-expressing cells), “Neither dopamine, octopamine nor tyramine evoked responses”.

In the case of `CN1CCC(=C2c3ccccc3C=Cc3ccccc32)CC1` [Cyproheptadine, cyproheptadine], the “serotonin-induced Ca2+-dependent fluorescence reduced by” value in experiment [1] (Am5-HT2A) is given as 36%. Also, the “Ca2+-dependent fluorescence blocked to” value in experiment [4] (Am5-HT2B) was 23%. In experiment [6], the “receptor activity reduced by” value was no less than 50%.

In the case of `CSc1ccc2c(c1)C(N1CCN(C)CC1)Cc1ccccc1S2` (stereo not drawn) [Metitepine, metitepine], the “inhibition range (IC50)” value in experiment [1] (Am5-HT2A) is “micromolar range”. In addition, in [1] (Am5-HT2A), the “serotonin-induced Ca2+-dependent fluorescence reduced by” value is given as 39%. The 50% inhibitory concentration (IC50) in experiment [10] was 2 µM; in [5] (IC50, background of 10^-7 M serotonin, Dm5-HT2B-expressing HEK 293 cells) it was 3.56e-06 M; in [5] (Log IC50 ± SD, logarithm of the IC50 (M), background of 10^-7 M serotonin), 3.55e-06 M; in experiment [2] (Cv5-HT2A), 1.2 µM. The molecule further yielded a Maximal inhibition in experiment [5] of 35%. For the same molecule, the “serotonin-induced Ca2+ signals reduced to % of control measurements” value in experiment [2] (Cv5-HT2A) was 15%. Besides, the “effect on food intake” value in [11] is listed as “potent anorectic drug”. Further, the antagonist activity result in [4] (Am5-HT2B) is given as “did not have any activity at all”.

With `COc1ccc2[nH]cc(CCN)c2c1` [5-methoxytryptamine], the concentration for a half-maximal effect (EC50) is 0.07 µM in experiment [1]; 0.067 µM in experiment [2]; 1.05 µM and ~1 µM in experiment [3] (EC50 (half-maximal activation of Dm5-HT2B), Dm5-HT2B-expressing HEK 293 cells, Fluo-4 fluorescence, concentrations 10^-9 M to 10^-4 M); 0.0604 µM in [4].

Take `NCCc1ccc(O)cc1` [tyramine]: the “change” value in experiment [7] was “Neither dopamine, octopamine nor tyramine evoked responses”; in experiment [3] (Dm5-HT2B-expressing cells), “Neither dopamine, octopamine nor tyramine evoked responses”.
